Reference: ChEMBL document CHEMBL1201862, “PubChem BioAssay data set” (2004)
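Five concentrations, 48 hours, 96-well plates. GI50 is the concentration that inhibits growth by half.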 Calls of active or inactive are those of the source. Rule as the data show it: active = GI50 up to about 1.1 µM and inactive = higher.

How the values were obtained:
Assay in all cases: NCI-60 cell line screen, 48 h
SK-OV-3 = system: SK-OV-3
SK-MEL-5 = system: SK-MEL-5
SF-268 = system: SF-268
COLO 205 = system: COLO 205
SW-620 = system: SW-620
OVCAR-3 = system: OVCAR-3
HCT-116 = system: HCT-116
Malme-3M = system: Malme-3M
HCT-15 = system: HCT-15
LOX IMVI = system: LOX IMVI
NCI-H23 = system: NCI-H23
CCRF-CEM = system: CCRF-CEM
HCC 2998 = system: HCC 2998
NCI-H460 = system: NCI-H460
OVCAR-5 = system: OVCAR-5
HOP-62 = system: HOP-62
SR = system: SR

SMILES	GI50 (SK-OV-3)	GI50 (SK-MEL-5)	GI50 (SF-268)	GI50 (COLO 205)	GI50 (SW-620)	GI50 (OVCAR-3)	GI50 (HCT-116)	GI50 (Malme-3M)	GI50 (HCT-15) [µM]	GI50 (LOX IMVI)	GI50 (NCI-H23)	GI50 (CCRF-CEM)	GI50 (HCC 2998)	GI50 (NCI-H460)	GI50 (OVCAR-5)	GI50 (HOP-62)	GI50 (SR)
c1ccc2c(c1)n1nnnc1c1nnnn21	> 100 µM (inactive)	> 100 µM (inactive)	85.1 µM (inactive)	> 100 µM (inactive)	> 100 µM (inactive)	> 100 µM (inactive)	> 100 µM (inactive)	> 100 µM (inactive)	> 100	33.5 µM (inactive)	> 100 µM (inactive)	> 100 µM (inactive)	> 100 µM (inactive)	> 100 µM (inactive)	> 100 µM (inactive)	> 100 µM (inactive)	
N#CC(C(=O)CCC(=O)Nc1cccc(Cl)c1)c1ccccc1 (stereo unspecified)	> 100 µM (inactive)	> 100 µM (inactive)	> 100 µM (inactive)	> 100 µM (inactive)		> 100 µM (inactive)	> 100 µM (inactive)	> 100 µM (inactive)	> 100	> 100 µM (inactive)	> 100 µM (inactive)	> 100 µM (inactive)	> 100 µM (inactive)	> 100 µM (inactive)	> 100 µM (inactive)	> 100 µM (inactive)	> 100 µM (inactive)
CC(C(=O)N1C(=O)N(C(=O)C(C)C(O)c2ccccc2)C2CCCCC21)C(O)c1ccccc1 (stereo unspecified)		30.1 µM (inactive)	> 100 µM (inactive)	> 100 µM (inactive)	> 100 µM (inactive)	78.2 µM (inactive)	> 100 µM (inactive)	57.4 µM (inactive)	> 100	79.4 µM (inactive)	> 100 µM (inactive)	44.2 µM (inactive)		49.1 µM (inactive)	> 100 µM (inactive)	> 100 µM (inactive)	28.6 µM (inactive)
CCCCN[C@H]1C2C3CC4C5CC(C42)C1(C)C53 (stereo partly specified)	> 100 µM (inactive)	> 100 µM (inactive)	> 100 µM (inactive)	> 100 µM (inactive)	> 100 µM (inactive)	> 100 µM (inactive)	> 100 µM (inactive)	> 100 µM (inactive)	> 100	> 100 µM (inactive)		> 100 µM (inactive)	> 100 µM (inactive)	> 100 µM (inactive)	> 100 µM (inactive)	> 100 µM (inactive)	> 100 µM (inactive)
Cc1ccc(C)c(NC(=O)C(=O)C2C(=O)N(c3ccccc3)N=C2N)c1 (stereo unspecified)		> 100 µM (inactive)	> 100 µM (inactive)		> 100 µM (inactive)	> 100 µM (inactive)	> 100 µM (inactive)	> 100 µM (inactive)	> 100	> 100 µM (inactive)	> 100 µM (inactive)	> 100 µM (inactive)	> 100 µM (inactive)	> 100 µM (inactive)	> 100 µM (inactive)	> 100 µM (inactive)	
O=C1NC(=S)NC(=O)C1=Cc1cc2c(cc1[N+](=O)[O-])OCO2	> 100 µM (inactive)	> 100 µM (inactive)	> 100 µM (inactive)	> 100 µM (inactive)	39.1 µM (inactive)	> 100 µM (inactive)	54.1 µM (inactive)	> 100 µM (inactive)	39.7			55.3 µM (inactive)	> 100 µM (inactive)	> 100 µM (inactive)		> 100 µM (inactive)	35.9 µM (inactive)
Cc1cc(NCCCCCCCNc2cc(C)nc3cc(N)ccc23)c2ccc(N)cc2n1	40.6 µM (inactive)	22.2 µM (inactive)	60.3 µM (inactive)	14 µM (inactive)		44 µM (inactive)	27.6 µM (inactive)	36 µM (inactive)	> 100	21.6 µM (inactive)	30.8 µM (inactive)	15.6 µM (inactive)	46.2 µM (inactive)	27.2 µM (inactive)	> 100 µM (inactive)	41.9 µM (inactive)	18.6 µM (inactive)
CC(C)c1cccc(C(C)C)c1NC(=O)C(=O)CC(=O)CC(c1ccccc1)c1c(O)oc2ccccc2c1=O (stereo unspecified)	> 100 µM (inactive)	> 100 µM (inactive)	> 100 µM (inactive)	> 100 µM (inactive)	> 100 µM (inactive)	> 100 µM (inactive)	> 100 µM (inactive)	> 100 µM (inactive)			> 100 µM (inactive)	> 100 µM (inactive)	> 100 µM (inactive)	> 100 µM (inactive)	> 100 µM (inactive)	> 100 µM (inactive)	> 100 µM (inactive)
COc1ccc(C2=C(Cl)c3cc(OC)c(OC)cc3C2OC)cc1OC (stereo unspecified)		> 100 µM (inactive)	> 100 µM (inactive)	26.9 µM (inactive)	19.5 µM (inactive)		95.7 µM (inactive)	> 100 µM (inactive)	56.9	50.2 µM (inactive)	> 100 µM (inactive)	50.2 µM (inactive)	> 100 µM (inactive)	> 100 µM (inactive)	> 100 µM (inactive)	> 100 µM (inactive)	
